These are literature values, as cited in US20180353175A1, “Surgical Fastener with Broad Spectrum MMP Inhibitors” (Ethicon LLC, priority 2017, published 2018).

Read-outs that look alike come from different tables or passages of the source. Square brackets hold non-standard residues; d marks the D form. Peptide text beside a SMILES is read from it. * marks the point of attachment. 4Abz = Nc1ccc(C(=O)O)cc1; NHOH = ON* A value given as a limit tells only on which side of the number the result lay.

A word on the Ki: it is a dissociation constant, usually derived from enzyme kinetics or from competition with a known ligand. One may read the IC50 as the concentration that inhibits the measured activity by half.

Targets include MMP3 (Homo sapiens, UniProt P08254); MMP8 (Homo sapiens, UniProt P22894); MMP13 (Homo sapiens, UniProt P45452); MMP12 (Homo sapiens, UniProt P39900); MMP14 (Homo sapiens, UniProt P50281).
The next data set deals with T1, MMP1 (Homo sapiens, UniProt P03956).
T1 sequence (P03956 100-469): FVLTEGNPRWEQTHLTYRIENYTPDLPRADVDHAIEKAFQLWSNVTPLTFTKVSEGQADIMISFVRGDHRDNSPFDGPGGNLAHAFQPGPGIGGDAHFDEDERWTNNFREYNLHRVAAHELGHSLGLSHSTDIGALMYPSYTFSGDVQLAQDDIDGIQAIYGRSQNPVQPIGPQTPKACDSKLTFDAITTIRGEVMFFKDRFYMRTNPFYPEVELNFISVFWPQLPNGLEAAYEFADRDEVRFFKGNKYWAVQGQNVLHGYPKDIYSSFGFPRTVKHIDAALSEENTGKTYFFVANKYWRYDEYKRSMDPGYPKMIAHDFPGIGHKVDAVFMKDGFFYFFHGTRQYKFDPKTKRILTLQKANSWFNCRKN

For another data set, the target named is T2, MMP7 (Homo sapiens, UniProt P09237).
T2 sequence (P09237 95-267): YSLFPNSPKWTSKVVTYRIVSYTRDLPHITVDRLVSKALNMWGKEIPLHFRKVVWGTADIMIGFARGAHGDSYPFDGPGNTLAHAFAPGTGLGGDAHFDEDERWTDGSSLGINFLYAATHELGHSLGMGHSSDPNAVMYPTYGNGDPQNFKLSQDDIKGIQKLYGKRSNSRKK
The conditions noted are these: for IC50: read-out: IC50 MMP7.

In a further data set the target is T3, MMP2 (Homo sapiens, UniProt P08253).
T3 sequence (P08253 110-660): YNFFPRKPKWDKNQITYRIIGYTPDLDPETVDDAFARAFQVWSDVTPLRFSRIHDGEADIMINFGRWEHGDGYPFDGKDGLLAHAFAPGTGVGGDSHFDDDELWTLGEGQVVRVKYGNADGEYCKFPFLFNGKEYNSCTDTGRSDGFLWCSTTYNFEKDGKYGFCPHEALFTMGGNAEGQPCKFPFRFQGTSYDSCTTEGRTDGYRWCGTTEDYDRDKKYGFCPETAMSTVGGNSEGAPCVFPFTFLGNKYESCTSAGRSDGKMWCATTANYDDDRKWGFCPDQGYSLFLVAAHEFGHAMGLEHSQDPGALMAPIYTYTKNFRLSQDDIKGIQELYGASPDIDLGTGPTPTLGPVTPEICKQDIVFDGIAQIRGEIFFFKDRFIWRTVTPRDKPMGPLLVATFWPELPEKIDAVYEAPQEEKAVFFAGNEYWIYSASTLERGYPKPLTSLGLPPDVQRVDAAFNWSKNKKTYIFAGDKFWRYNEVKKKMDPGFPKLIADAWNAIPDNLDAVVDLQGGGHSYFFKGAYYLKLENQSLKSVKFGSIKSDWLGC
The settings on record: for IC50: read-out: IC50 MMP2.

Another data set concerns the target MMP9 (Homo sapiens, UniProt P14780). The conditions noted are these: for IC50: read-out: IC50 MMP9.
In data set [1] the target is TACE (TNF-α-converting enzyme) (Homo sapiens, UniProt P78536).
Chain of TACE (TNF-α-converting enzyme) (P78536 215-824, species assumed): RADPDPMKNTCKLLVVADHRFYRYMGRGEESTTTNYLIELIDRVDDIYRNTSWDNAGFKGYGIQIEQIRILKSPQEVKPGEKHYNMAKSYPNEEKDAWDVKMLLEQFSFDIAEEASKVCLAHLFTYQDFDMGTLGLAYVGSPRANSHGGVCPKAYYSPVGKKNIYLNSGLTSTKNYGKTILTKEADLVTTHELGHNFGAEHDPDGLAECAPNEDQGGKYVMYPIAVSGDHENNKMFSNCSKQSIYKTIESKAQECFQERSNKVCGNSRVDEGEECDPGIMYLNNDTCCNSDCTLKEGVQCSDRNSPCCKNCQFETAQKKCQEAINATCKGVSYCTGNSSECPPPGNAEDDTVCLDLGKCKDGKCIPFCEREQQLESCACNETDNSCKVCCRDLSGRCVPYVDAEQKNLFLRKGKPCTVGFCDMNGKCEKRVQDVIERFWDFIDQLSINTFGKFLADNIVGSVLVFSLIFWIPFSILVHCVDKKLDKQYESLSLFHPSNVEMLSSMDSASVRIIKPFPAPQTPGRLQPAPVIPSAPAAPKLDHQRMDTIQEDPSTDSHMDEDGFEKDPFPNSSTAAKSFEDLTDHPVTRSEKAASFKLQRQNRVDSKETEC
[2] abbreviates: read-out: IC50 MMP8 (converted).

Chain of MMP3 (P08254 100-477, species assumed): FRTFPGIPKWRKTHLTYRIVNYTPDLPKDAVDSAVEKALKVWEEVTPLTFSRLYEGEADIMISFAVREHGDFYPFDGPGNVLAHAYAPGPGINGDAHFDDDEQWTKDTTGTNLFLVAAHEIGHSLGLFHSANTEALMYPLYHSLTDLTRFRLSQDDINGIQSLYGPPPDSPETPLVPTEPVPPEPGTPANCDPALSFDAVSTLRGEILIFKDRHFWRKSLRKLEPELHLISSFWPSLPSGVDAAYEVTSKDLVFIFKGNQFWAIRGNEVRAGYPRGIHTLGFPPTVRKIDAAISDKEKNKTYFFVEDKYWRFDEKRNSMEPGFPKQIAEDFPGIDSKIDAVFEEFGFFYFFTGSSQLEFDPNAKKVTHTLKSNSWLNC
Chain of MMP8 (P22894 101-467, species assumed): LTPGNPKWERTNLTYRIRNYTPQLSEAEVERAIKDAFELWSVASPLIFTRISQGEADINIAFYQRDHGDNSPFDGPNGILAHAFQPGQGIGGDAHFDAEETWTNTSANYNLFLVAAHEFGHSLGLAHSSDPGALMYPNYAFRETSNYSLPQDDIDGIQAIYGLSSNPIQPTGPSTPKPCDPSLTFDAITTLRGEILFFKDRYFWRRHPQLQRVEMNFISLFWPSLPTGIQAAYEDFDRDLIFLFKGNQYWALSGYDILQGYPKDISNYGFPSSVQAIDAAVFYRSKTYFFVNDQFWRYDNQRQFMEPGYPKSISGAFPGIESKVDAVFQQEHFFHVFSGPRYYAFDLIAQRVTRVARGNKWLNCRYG
Chain of MMP9 (P14780 94-707, species assumed): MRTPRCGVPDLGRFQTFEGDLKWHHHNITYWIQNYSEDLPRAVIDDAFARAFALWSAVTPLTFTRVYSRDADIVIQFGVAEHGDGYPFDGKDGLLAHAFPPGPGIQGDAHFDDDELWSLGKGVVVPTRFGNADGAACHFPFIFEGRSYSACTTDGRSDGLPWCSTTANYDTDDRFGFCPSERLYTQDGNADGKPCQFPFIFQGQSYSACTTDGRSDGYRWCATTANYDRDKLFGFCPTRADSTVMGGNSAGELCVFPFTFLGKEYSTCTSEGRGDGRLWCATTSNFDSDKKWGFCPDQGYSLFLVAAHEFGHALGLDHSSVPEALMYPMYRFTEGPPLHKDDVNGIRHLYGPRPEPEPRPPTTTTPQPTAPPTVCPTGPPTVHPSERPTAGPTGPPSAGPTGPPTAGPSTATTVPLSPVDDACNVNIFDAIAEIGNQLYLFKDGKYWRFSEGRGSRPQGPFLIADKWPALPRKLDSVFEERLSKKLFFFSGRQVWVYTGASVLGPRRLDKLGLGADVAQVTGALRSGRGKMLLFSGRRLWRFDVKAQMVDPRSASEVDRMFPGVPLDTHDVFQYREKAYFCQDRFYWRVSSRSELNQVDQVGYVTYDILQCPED
Chain of MMP12 (P39900 106-470, species assumed): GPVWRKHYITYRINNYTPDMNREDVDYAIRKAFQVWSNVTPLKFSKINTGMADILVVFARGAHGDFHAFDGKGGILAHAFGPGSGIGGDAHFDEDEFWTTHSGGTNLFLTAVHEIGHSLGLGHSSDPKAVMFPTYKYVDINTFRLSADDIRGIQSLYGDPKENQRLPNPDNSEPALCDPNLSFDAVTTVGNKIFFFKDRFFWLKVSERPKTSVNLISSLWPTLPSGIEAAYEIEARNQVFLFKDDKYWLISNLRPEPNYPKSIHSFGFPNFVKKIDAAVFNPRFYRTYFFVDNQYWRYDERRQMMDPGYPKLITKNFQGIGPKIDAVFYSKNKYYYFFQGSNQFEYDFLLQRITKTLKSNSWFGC

On to `O=C(NO)C1(CS(=O)(=O)c2ccc(Oc3ccc(Cl)cc3)cc2)CCOCC1` [RS 130830], for which the “inhibition of MMP1 (in words)” value at MMP1 is reported as “suppress”.

Regarding `CCOCOCC(CC(C)C(=O)NO)NC(=O)c1ccc(Oc2ccccc2)cc1` (stereo not drawn) [ONO-4817], the Ki on MMP3 is 42 nM; on MMP7, 2.5 nM; at MMP8, 1.1 nM; on MMP13 it was 1.1 nM; on MMP2, 0.73 nM; at MMP12 it was 0.45 nM. The IC50 on MMP9 is 2.1 nM; at MMP1, 1.6 nM.

`CN1C(=O)N(C[C@H](C(=O)NO)[C@@H](CC2CCCC2)C(=O)N2CCCCC2)C(=O)C1(C)C` [Cipemastat]: the “inhibition of MMP3 (in words)” value at MMP3 was “can inhibit”. In addition, the “inhibition of MMP9 (in words)” value on MMP9 is “can inhibit”. For the same molecule, on MMP1, the “inhibition of MMP1 (in words)” value is recorded as “can inhibit”.

`CNC(=O)[C@H](Cc1ccccc1)NC(=O)[C@H](CC(C)C)[C@H](CSc1cccs1)C(=O)NO` [Batimastat]: the half-inhibitory concentration (IC50) at MMP7 was 0.006 µM; at MMP9, 1 nM.

For `CCN(CC)Cc1cc(C)c(N(Cc2ccccc2)S(=O)(=O)c2ccc(OC)cc2)c(C(=O)NO)c1` [MMP9 inhibitor I], on MMP1, the IC50 is 1.05 nM.

With `C[C@H]1c2cccc(O)c2C(=O)C2=C(O)[C@]3(O)C(=O)C(C(N)=O)=C(O)[C@@H](N(C)C)[C@@H]3[C@@H](O)[C@@H]21` [Doxycycline], the IC50 on MMP3 was 32 µM; on MMP7, 28 µM; at MMP8 (setting [2]), 26000 to 50000 nM; at MMP13 it was 2000 to 50000 nM; at MMP2 it was 56000 nM; at MMP1, greater than 400000 nM.

Turning to `CC1(C)SCCN(S(=O)(=O)c2ccc(Oc3ccncc3)cc2)[C@H]1C(=O)NO` [Prinomastat], on MMP14, the “inhibition of MMP14 (in words)” value is “specific selectivity”. The “inhibition of MMP3 (in words)” value at MMP3 was “specific selectivity”. Also, the “inhibition of MMP9 (in words)” value at MMP9 is recorded as “specific selectivity”.

For “TIMP-1: endogenous tissue inhibitor of metalloproteinases; extensively glycosylated protein with a molecular mass of 28.5 kDa”, the “inhibition of MMP8 (in words)” value with MMP8 is on record as “preferentially inhibits”. Moreover, in the data set on MMPs, the “inhibition of MMPs in general (in words)” value was “inhibit most MMPs (except MMP-2 and -14)”.

Turning to `COc1ccc(S(=O)(=O)N(Cc2cccnc2)[C@@H](C(=O)NO)C(C)C)cc1.Cl` [MMI-270], the “inhibition of MMP8 (in words)” value at MMP8 was “can inhibit”. In addition, the “inhibition of MMP2 (in words)” value at MMP2 is reported as “can inhibit”. Also, the “inhibition of MMP9 (in words)” value at MMP9 is listed as “can inhibit”.

On to “7-dimethylamino-6-dimethyl-6-deoxytetracycline [Minocycline]”, for which the IC50 was 290 µM at MMP3, 125 µM at MMP7 and 180000 nM at MMP9. The “inhibition of MMP2 (in words)” value on MMP2 is listed as “effective for the inhibition”. Moreover, the “inhibition of MMP1 (in words)” value at MMP1 is “effective for the inhibition”.

With `CNC(=O)[C@@H](NC(=O)[C@H](CC(C)C)[C@H](O)C(=O)NO)C(C)(C)C` [Marimastat], the IC50 at MMP14 is 1.8 nM.

`CC(C)C[C@@H](NC(=O)[C@@H]1CCCN1C(=O)CNC(=O)c1ccc(N)cc1)C(=O)N[C@H](C)C(=O)NO` [FN-439, p-aminobenzoyl-Gly-Pro-D-Leu-D-Ala-NHOH] (H-[4Abz]GP[dL][dA]-{NHOH}): the IC50 was 150 µM on MMP3, 1000 nM at MMP8 (setting [2]), 30000 nM on MMP9 and 1000 nM on MMP1.

As for `NC(=O)C1=C(O)CC2CC3Cc4cccc(O)c4C(=O)C3=C(O)C2(O)C1=O` (stereo not drawn) [COL-3], the IC50 is 129000 nM on MMP8 (setting [2]), 808 nM on MMP13 and 91600 nM at MMP1.

For `O=C1NC(=O)C(c2ccc(-c3ccccc3)cc2)(N2CCN(c3ccc([N+](=O)[O-])cc3)CC2)C(=O)N1` [Ro 28-2653], the IC50 at MMP8 (read-out: IC50 MMP8) was 15 nM; at MMP2, 7 to 246 nM; at MMP9, 12 to 23 nM.

Consider `CC1(C)NC(=O)N(C[C@@H](COc2ccc(-c3ccc(OC(F)(F)F)cc3)cc2)N(O)C=O)C1=O` [ABT-770], for which the “inhibition of MMP2 (in words)” value on MMP2 is recorded as “inhibits”. In addition, the “inhibition of MMP9 (in words)” value on MMP9 was “inhibits”.

For `O=C(NO)C1(S(=O)(=O)c2ccc(Oc3ccc(Cl)cc3)cc2)CCN(Cc2ccccc2)CC1` [239796-97-5], the “inhibition of MMP1 (in words)” value at MMP1 is “suppress”.

In the case of `C=CCN(C(=O)CCC(=O)N(O)CC(C)C)C(Cc1ccccc1)C(=O)NC` (stereo not drawn) [BB-1101], the IC50 on MMP14 is 10 nM; on MMP3, 0.03 µM; at MMP7, 0.06 µM; at MMP8 (setting [2]) it was 3 nM; on MMP13, 7 nM; at MMP2, 4 nM. Besides, the results for the IC50 at MMP9, on MMP1 and on MMP12 were 3 nM, 8 nM and 5 nM, respectively.

B1: TIMP-4: endogenous tissue inhibitor of metalloproteinases, secreted predominantly in heart and brain tissue (protein, UniProt Q99727 30-224, looked up)
Metalloproteinase inhibitor 4: CSCAPAHPQQHICHSALVIRAKISSEKVVPASADPADTEKMLRYEIKQIKMFKGFEKVKDVQYIYTPFDSSLCGVKLEANSQKQYLLTGQVLSDGKVFIHLCNYIEPWEDLSLVQRESLNHHYHLNCGCQITTCYTVPCTISAPNECLWTDWLLERKLYGYQAQHYVCMKHVDGTCSWYRGHLPLRKEFVDIVQP
For B1, the “inhibition of MMP7 (in words)” value in the data set with MMP7 is reported as “preferentially inhibits”. Moreover, the “inhibition of MMPs in general (in words)” value in the data set on MMPs is “inhibits all known MMPs”. Besides, the “inhibition of MMP2 (in words)” value in the data set with MMP2 is given as “preferentially inhibits”.

B2: TIMP-3: endogenous tissue inhibitor of metalloproteinases, typically bound to the ECM (protein, UniProt P35625 24-211, looked up)
Metalloproteinase inhibitor 3: CTCSPSHPQDAFCNSDIVIRAKVVGKKLVKEGPFGTLVYTIKQMKMYRGFTKMPHVQYIHTEASESLCGLKLEVNKYQYLLTGRVYDGKMYTGLCNFVERWDQLTLSQRKGLNYRYHLGCNCKIKSCYYLPCFVTSKNECLWTDMLSNFGYPGYQSKHYACIRQKGGYCSWYRGWAPPDKSIINATDP
For the molecule B2, in the data set with MMP3, the “inhibition of MMP3 (in words)” value is “inhibits the activity”. Further, the “inhibition of TACE (in words)” value in data set [1] is given as “normally inhibits”. Moreover, the “inhibition of MMP13 (in words)” value in the data set with MMP13 was “inhibits the activity”. In addition, the “inhibition of MMP2 (in words)” value with MMP2 is “inhibits the activity”. Further, the “inhibition of MMP9 (in words)” value with MMP9 is given as “inhibits the activity”. Moreover, the “inhibition of MMP1 (in words)” value with MMP1 is “inhibits the activity”.
